Common to all, as to type: physicochemical
Data set [1] is described as follows: Solvent solubility screen of CHP lyophile. Here is the method: To a known mass of CHP lyophile (10 mg, from Section 5.2.2), 100 μL of the appropriate solvent was added and if solid remained the vial was gently heated to ˜40° C. to aid dissolution. Solvent addition continued until the material fully dissolved or 2 mL had been added (<5 mg/mL). The samples were uncapped and allowed to evaporate at ambient. The solvents used in the solubility screen can be found in Table 21.

The nature of data set [2]: Competitive slurry of Pattern 1 and Pattern 2 in EtOH/water/MtBE (form stability, XRPD). Here is the method: In order to study form stability in EtOH/water/MtBE, competitive repining experiments were carried out at 50° C., 35° C., and 5° C. respectively, by adding 100 mg of anhydrous Pattern 1 solid and 100 mg of Pattern 2 solid.
Data set [3] can be described thus: 8-week stability assessment at 40 °C/75% RH (XRPD, appearance, chiral HPLC). Particulars: for Chiral Purity: chiral HPLC. Here is the method:
XRPD analysis was carried out on a PANalytical X'pert pro, scanning the samples between 3 and 35° 2θ. The material was gently ground to release any agglomerates and loaded onto a multi-well plate with Kapton or Mylar polymer film to support the sample. The multi-well plate was then placed into the diffractometer and analyzed using Cu K radiation (α1λ=1.54060 Å; α2=1.54443 Å; β=1.39225 Å; α1: α2 ratio=0.5) running in transmission mode (step size 0.0130° 2θ) using 40 kV/40 mA generator settings.
13. Chiral HPLC Column: Daicel IC (5.0 um, 250*4.6 mm) Column Temperature: 30° C. Injection Volume: 5 μL Flow Rate: 1.0 mL/min Mobile Phase A: 0.01% DEA in n-Hexane Mobile Phase B: EtOH:MeOH=2:8 (v/v) Diluent: Acetonitrile PDA Range: 220 nm Gradient program: […]

Data set [4] is described as follows: 1 day stability assessment at 40 °C/75% RH (XRPD). Particulars: 2 hours at 40 °C/75% RH.

Molecules are shown by their SMILES. Entries after “also recorded” stand apart in the source; their conditions may differ.

Consider `O=C1N[C@@H](Cc2cnc[nH]2)C(=O)N2CCC[C@@H]12` [CHP Lyophile, Cyclo (-His-Pro)], for which the “Approximate Solubility” value in data set [1] (1-Butanol) is not below 5000 µg/mL; in data set [1] (2-Butanol) it was not below 5000 µg/mL; in data set [1] (Dichloromethane) it was not above 5000 µg/mL; in data set [1] (Ethyl Acetate), not above 5000 µg/mL; in data set [1] (Ethyl Formate) it was not above 5000 µg/mL; in data set [1] (Heptane), not above 5000 µg/mL. In addition, the “Approximate Solubility” value in data set [1] (Isopropyl Acetate), in data set [1] (Methylethyl Ketone), in data set [1] (Methylisobutyl Ketone), in data set [1] (Nitromethane), in data set [1] (THF) and in data set [1] (acetone) was not above 5000 µg/mL throughout. Also, the “Approximate Solubility” value in data set [1] (acetonitrile) and in data set [1] (tert-Butylmethyl Ether) was not above 5000 µg/mL in each case.
On to `O=C1N[C@@H](Cc2c[nH]cn2)C(=O)N2CCC[C@@H]12` [Pattern 1 and Pattern 2], for which the XRPD tracking result in data set [2] ((EtOH:H2O = 9:1):MTBE = 1:2, 5 °C, 0 h) is recorded as “Pattern 2”; in data set [2] ((EtOH:H2O = 9:1):MTBE = 1:2, 5 °C, 2 h), “Pattern 2”; in data set [2] ((EtOH:H2O = 9:1):MTBE = 1:2, 5 °C, 6 d) it was “Pattern 2”; in data set [2] ((EtOH:H2O = 9:1):MTBE = 1:2, 5 °C, 7 d), “Pattern 2”; in data set [2] ((EtOH:H2O = 9:1):MTBE = 1:2, 35 °C, 0 h), “Pattern 2”; in data set [2] ((EtOH:H2O = 9:1):MTBE = 1:2, 35 °C, 2 h), “Pattern 2”. Further, the XRPD tracking result was “Pattern 2” in data set [2] ((EtOH:H2O = 9:1):MTBE = 1:2, 50 °C, 0 h); “Pattern 2” in data set [2] ((EtOH:H2O = 9:1):MTBE = 1:2, 50 °C, 2 h); “Pattern 2” in data set [2] ((EtOH:H2O = 9:1):MTBE = 1:3, 5 °C, 0 h); “Pattern 2” in data set [2] ((EtOH:H2O = 9:1):MTBE = 1:3, 5 °C, 2 h); “Pattern 2” in data set [2] ((EtOH:H2O = 9:1):MTBE = 1:3, 5 °C, 6 d); “Pattern 2” in data set [2] ((EtOH:H2O = 9:1):MTBE = 1:3, 5 °C, 7 d). Besides, the XRPD tracking result in data set [2] ((EtOH:H2O = 9:1):MTBE = 1:3, 35 °C, 0 h) is recorded as “Pattern 2”; in data set [2] ((EtOH:H2O = 9:1):MTBE = 1:3, 35 °C, 2 h), “Pattern 2”; in data set [2] ((EtOH:H2O = 9:1):MTBE = 1:3, 35 °C, 6 d), “Pattern 2”; in data set [2] ((EtOH:H2O = 9:1):MTBE = 1:3, 35 °C, 7 d), “Pattern 2”; in data set [2] ((EtOH:H2O = 9:1):MTBE = 1:3, 50 °C, 0 h), “Pattern 2”; in data set [2] ((EtOH:H2O = 9:1):MTBE = 1:3, 50 °C, 2 h), “Pattern 2”. Further, the XRPD tracking result in data set [2] ((EtOH:H2O = 9:1):MTBE = 1:3, 50 °C, 6 d) is “Pattern 2”; in data set [2] ((EtOH:H2O = 9:1):MTBE = 1:3, 50 °C, 7 d), “Pattern 2”; in data set [2] ((EtOH:H2O = 9:1):MTBE = 2.5:0.5, 5 °C, 0 h), “Pattern 2”; in data set [2] ((EtOH:H2O = 9:1):MTBE = 2.5:0.5, 5 °C, 2 h), “Pattern 2”; in data set [2] ((EtOH:H2O = 9:1):MTBE = 2.5:0.5, 5 °C, 6 d), “Pattern 2”; in data set [2] ((EtOH:H2O = 9:1):MTBE = 2.5:0.5, 5 °C, 7 d), “Pattern 2”. For the same compound, the XRPD tracking result in data set [2] ((EtOH:H2O = 9:1):MTBE = 2.5:0.5, 35 °C, 0 h) is “Pattern 2”; in data set [2] ((EtOH:H2O = 9:1):MTBE = 2.5:0.5, 35 °C, 2 h) it was “Pattern 2”; in data set [2] ((EtOH:H2O = 9:1):MTBE = 2.5:0.5, 35 °C, 6 d) it was “Pattern 2”; in data set [2] ((EtOH:H2O = 9:1):MTBE = 2.5:0.5, 35 °C, 7 d), “Pattern 2”; in data set [2] ((EtOH:H2O = 9:1):MTBE = 2.5:0.5, 50 °C, 0 h), “Pattern 2”; in data set [2] ((EtOH:H2O = 9:1):MTBE = 2.5:0.5, 50 °C, 2 h), “Pattern 2”. Besides, the XRPD tracking result in data set [2] ((EtOH:H2O = 9:1):MTBE = 2.5:0.5, 50 °C, 6 d) is “Pattern 2”; in data set [2] ((EtOH:H2O = 9:1):MTBE = 3:0, 5 °C, 0 h) it was “Pattern 2”; in data set [2] ((EtOH:H2O = 9:1):MTBE = 3:0, 5 °C, 2 h) it was “Pattern 2”; in data set [2] ((EtOH:H2O = 9:1):MTBE = 3:0, 5 °C, 6 d), “Pattern 2”; in data set [2] ((EtOH:H2O = 9:1):MTBE = 3:0, 5 °C, 7 d) it was “Pattern 2”; in data set [2] ((EtOH:H2O = 9:1):MTBE = 3:0, 35 °C, 0 h), “Pattern 2”. Moreover, the XRPD tracking result in data set [2] ((EtOH:H2O = 9:1):MTBE = 3:0, 35 °C, 2 h) is “Pattern 2”; in data set [2] ((EtOH:H2O = 9:1):MTBE = 3:0, 35 °C, 6 d) it was “Pattern 2”; in data set [2] ((EtOH:H2O = 9:1):MTBE = 3:0, 35 °C, 7 d), “Pattern 2”; in data set [2] ((EtOH:H2O = 9:1):MTBE = 3:0, 50 °C, 0 h) it was “Pattern 2”.
For the compound `O=C1N[C@@H](Cc2cnc[nH]2)C(=O)N2CCC[C@@H]12` [Pure Pattern 1, Cyclo (-His-Pro)], the Appearance entry in data set [3] (2-week), in data set [3] (4-week), in data set [3] (8-week) and in data set [3] (Initial) was “Faint beige” each time. Moreover, the “XRPD form after storage” value in data set [3] (4 weeks) was “remained as pattern 2”; in data set [3] (8 weeks), “remained as pattern 2”; in data set [3] (two weeks (14 days)), “converted to pattern 2; also recorded: converting to the hydrated pattern 2”; in data set [4] (listed as Pure pattern 1), “convert to pattern 2”; in data set [4] (listed as pure pattern 1) it was “converts to pattern 2”. Further, the “Chiral Purity” value in data set [3] (2-week) is reported as 99.9%; in data set [3] (4-week), 99.9%; in data set [3] (8-week) it was 99.9%; in data set [3] (Initial), more than 99.9%.

Source of the values: patent US12534496B2, “Polymorphic forms of Cyclo (-His-Pro) and methods of use to treat kidney disease” (NovMetaPharma Co., Ltd., priority 2018, dated 2026).
